The source of these data is ChEMBL document CHEMBL4041544, “Discovery of new selective glucocorticoid receptor agonist leads” (Bioorg Med Chem Lett, 2017).

By IC50 is commonly meant the point on the concentration scale where inhibition reaches its midpoint.

In brackets after ≈: the same amount, converted by molar mass.

Data set [1] is described as follows: Thermodynamic solubility of the compound in 0.1 M phosphate buffer at pH 7.4 at 25 degC. The data set is classed as physicochemical. The following applies: read-out: Therm_solubility.
In another data set the target is T1, Glucocorticoid receptor (Homo sapiens, UniProt P04150).
T1 sequence (P04150 whole entry): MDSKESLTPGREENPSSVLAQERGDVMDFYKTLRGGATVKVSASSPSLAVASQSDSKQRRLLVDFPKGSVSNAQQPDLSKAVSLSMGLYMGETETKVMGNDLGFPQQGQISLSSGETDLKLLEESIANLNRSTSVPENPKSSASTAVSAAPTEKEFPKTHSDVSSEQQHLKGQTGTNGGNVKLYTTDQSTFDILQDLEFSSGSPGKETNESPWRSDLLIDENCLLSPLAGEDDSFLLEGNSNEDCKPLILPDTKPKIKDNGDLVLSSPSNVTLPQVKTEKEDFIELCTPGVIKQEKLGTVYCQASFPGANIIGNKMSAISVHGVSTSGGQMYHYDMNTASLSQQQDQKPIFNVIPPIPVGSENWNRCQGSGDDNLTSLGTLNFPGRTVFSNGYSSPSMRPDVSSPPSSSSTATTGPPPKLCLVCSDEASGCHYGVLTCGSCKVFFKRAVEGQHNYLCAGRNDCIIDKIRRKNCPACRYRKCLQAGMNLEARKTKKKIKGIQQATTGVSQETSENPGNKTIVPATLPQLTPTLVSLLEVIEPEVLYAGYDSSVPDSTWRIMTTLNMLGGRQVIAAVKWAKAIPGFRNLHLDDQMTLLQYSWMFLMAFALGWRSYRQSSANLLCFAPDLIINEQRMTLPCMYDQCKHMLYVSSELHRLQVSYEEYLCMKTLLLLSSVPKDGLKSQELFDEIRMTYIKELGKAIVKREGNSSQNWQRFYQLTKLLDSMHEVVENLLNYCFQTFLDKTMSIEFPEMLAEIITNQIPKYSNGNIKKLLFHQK
Kind of data set: Transrepression activity at glucocorticoid receptor in human THP1 cells assessed as receptor-mediated anti-inflammatory activity by measuring inhibition of LPS-induced IL-8 production. The data set is classed as cell-based.

Another data set concerns the target T2, Progesterone receptor (Homo sapiens, UniProt P06401).
T2 sequence (P06401 whole entry): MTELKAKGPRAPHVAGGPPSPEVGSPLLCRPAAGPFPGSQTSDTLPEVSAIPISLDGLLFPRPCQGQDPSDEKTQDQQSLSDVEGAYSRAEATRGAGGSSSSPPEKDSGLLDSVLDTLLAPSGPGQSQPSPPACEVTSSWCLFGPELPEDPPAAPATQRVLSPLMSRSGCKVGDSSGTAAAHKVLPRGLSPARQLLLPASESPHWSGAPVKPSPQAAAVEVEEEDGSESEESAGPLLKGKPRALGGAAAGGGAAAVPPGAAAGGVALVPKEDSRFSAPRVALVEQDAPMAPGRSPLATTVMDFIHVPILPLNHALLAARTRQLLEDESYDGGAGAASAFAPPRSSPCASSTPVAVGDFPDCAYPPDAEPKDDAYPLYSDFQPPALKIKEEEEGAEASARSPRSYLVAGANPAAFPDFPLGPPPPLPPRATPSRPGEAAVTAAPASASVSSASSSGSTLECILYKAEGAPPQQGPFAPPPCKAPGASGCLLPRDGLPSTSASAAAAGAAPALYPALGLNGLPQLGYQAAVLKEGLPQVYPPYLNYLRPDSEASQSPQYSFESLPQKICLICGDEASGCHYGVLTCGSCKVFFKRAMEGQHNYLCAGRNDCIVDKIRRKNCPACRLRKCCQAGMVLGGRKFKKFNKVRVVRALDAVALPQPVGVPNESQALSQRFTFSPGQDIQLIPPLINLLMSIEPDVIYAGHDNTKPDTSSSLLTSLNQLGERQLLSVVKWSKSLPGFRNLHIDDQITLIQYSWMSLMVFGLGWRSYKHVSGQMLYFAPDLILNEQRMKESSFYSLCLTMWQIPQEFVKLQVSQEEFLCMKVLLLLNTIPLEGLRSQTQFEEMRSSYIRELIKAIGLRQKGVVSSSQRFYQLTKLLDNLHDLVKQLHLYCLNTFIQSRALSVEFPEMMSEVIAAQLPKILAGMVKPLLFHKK
Put plainly: Binding affinity to recombinant human progesterone receptor expressed in baculovirus infected sf9 cells.

Data set [2] addresses T3, Mineralocorticoid receptor (Homo sapiens, UniProt P08235).
T3 sequence (P08235 whole entry): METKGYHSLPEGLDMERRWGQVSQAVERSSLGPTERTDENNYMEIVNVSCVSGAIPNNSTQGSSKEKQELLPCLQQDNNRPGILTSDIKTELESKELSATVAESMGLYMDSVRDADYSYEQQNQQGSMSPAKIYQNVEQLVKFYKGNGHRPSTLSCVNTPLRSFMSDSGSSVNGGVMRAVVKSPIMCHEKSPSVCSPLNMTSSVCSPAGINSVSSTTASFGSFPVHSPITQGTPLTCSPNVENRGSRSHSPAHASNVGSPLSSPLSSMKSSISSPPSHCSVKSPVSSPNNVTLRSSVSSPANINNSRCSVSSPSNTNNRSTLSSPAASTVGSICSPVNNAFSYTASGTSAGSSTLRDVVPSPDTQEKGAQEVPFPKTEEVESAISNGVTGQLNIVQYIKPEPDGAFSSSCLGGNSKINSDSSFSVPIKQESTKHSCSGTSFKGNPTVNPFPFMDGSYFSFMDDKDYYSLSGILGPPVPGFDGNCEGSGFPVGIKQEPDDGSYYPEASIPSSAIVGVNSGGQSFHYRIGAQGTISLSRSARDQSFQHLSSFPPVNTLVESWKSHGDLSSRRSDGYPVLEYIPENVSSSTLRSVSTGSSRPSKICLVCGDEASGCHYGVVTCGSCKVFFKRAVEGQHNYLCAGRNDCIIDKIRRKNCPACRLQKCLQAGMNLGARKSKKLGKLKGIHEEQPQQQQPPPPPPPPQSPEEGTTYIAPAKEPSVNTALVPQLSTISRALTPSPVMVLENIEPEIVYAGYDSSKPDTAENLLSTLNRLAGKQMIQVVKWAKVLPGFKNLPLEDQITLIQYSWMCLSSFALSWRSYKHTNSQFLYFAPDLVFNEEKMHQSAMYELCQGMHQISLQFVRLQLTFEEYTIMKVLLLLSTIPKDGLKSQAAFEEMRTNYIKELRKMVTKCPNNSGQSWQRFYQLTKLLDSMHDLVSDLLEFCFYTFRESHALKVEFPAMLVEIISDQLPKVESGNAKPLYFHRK
Kind of data set: Binding affinity to recombinant human mineralocorticoid receptor expressed in baculovirus infected sf9 cells.

Turning to `CC[C@@H]1C[C@](O)(C(F)(F)F)[C@@H](Nc2cc(F)cc3nc(C)ncc23)c2ccc(F)c(O)c21`, the solubility thermodynamic in data set [1] was 26 µg/mL (≈ 57.3 µM). In addition, the IC50 is 6.31 nM at Glucocorticoid receptor, > 1000 nM at Progesterone receptor and > 1000 nM in data set [2].
